Measured values as given in patent US6737383B1, “Herbicidal oxadiazolidines” (priority 1999, dated 2004).

Key:
bedstraw = test: Test B pre/postemergence bedstraw; assay type: in vivo, Galium aparine
Summary of the method: (§1)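 Test chemicals in a non-phytotoxic solvent mixture with surfactant were sprayed preemergence onto planted seeds and postemergence onto plants 2 to 18 cm tall (1- to 4-leaf stage). After twelve to sixteen days in a greenhouse, injury was visually rated against untreated controls from 0 (no effect) to 10 (complete control).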

blackgrass = test: Test B pre/postemergence blackgrass; assay type: in vivo, Alopecurus myosuroides
Summary of the method: as §1

surinam grass = test: Test B pre/postemergence surinam grass; assay type: in vivo, Brachiaria decumbens
Summary of the method: as §1

cocklebur = test: Test B pre/postemergence cocklebur; assay type: in vivo, Xanthium strumarium
Summary of the method: as §1

corn = test: Test B pre/postemergence corn; assay type: in vivo, Zea mays
Summary of the method: as §1

crabgrass = test: Test B pre/postemergence crabgrass; assay type: in vivo, Digitaria sanguinalis
Summary of the method: as §1

giant foxtail = test: Test B pre/postemergence giant foxtail; assay type: in vivo, Setaria faberii
Summary of the method: as §1

morningglory = test: Test B pre/postemergence morningglory; assay type: in vivo, Ipomoea hederacea
Summary of the method: as §1

pigweed = test: Test B pre/postemergence pigweed; assay type: in vivo, Amaranthus retroflexus
Summary of the method: as §1

rape = test: Test B pre/postemergence rape; assay type: in vivo, Brassica napus
Summary of the method: as §1

soybean = test: Test B pre/postemergence soybean; assay type: in vivo, Glycine max
Summary of the method: as §1

sugar beet = test: Test B pre/postemergence sugar beet; assay type: in vivo, Beta vulgaris
Summary of the method: as §1

velvetleaf = test: Test B pre/postemergence velvetleaf; assay type: in vivo, Abutilon theophrasti
Summary of the method: as §1

wheat = test: Test B pre/postemergence wheat; assay type: in vivo, Triticum aestivum
Summary of the method: as §1

wild oat = test: Test B pre/postemergence wild oat; assay type: in vivo, Avena fatua
Summary of the method: as §1

purple nutsedge = test: Test B pre/postemergence purple nutsedge; assay type: in vivo, Cyperus rotundus
Summary of the method: as §1

[1] = Postemergence, Rate 62 g/ha, scale 0 to 10, 0 is no effect, 10 is complete control
[2] = Postemergence, Rate 125 g/ha, scale of 0 to 10 where 0 is no effect and 10 is complete control
[3] = Postemergence, Rate 500 g/ha, scale 0 (no effect) to 10 (complete control)
[4] = Preemergence, Rate 250 g/ha, scale 0 (no effect) to 10 (complete control)
[5] = Rate 62 g/ha, Preemergence, scale 0 to 10
[6] = Rate 125 g/ha, Preemergence, scale 0 to 10 (0 no effect, 10 complete control)
[7] = Rate 250 g/ha, Postemergence, scale 0 to 10, 0 is no effect, 10 is complete control
[8] = Rate 500 g/ha, Preemergence, scale 0 to 10 (0 no effect, 10 complete control)
[9] = Preemergence, Rate 62 g/ha, scale of 0 to 10 where 0 is no effect and 10 is complete control
[10] = Preemergence, Rate 250 g/ha, scale 0 to 10, 0 is no effect, 10 is complete control
[11] = Preemergence, Rate 500 g/ha, scale 0 to 10, 0 is no effect, 10 is complete control
[12] = Preemergence, Rate 125 g/ha, scale 0 to 10, 0 is no effect, 10 is complete control
[13] = Preemergence, Rate 500 g/ha, scale of 0 to 10 where 0 is no effect and 10 is complete control

SMILES: COC1CCC(Cn2c(=O)on(C(=O)N(c3ccc(F)cc3)C(C)C)c2=O)=NO1 (stereo not drawn) [Compound 766]
- Plant response rating, Bedstraw (bedstraw; [1]): 0
- Bedstraw plant response rating (bedstraw; [2]): 0
- Bedstraw plant response rating (bedstraw; [3]): 3
- Bedstraw plant response rating (bedstraw; [4]): 10
- Bedstraw plant response rating (bedstraw; [5]): 4
- Bedstraw plant response rating (bedstraw; [6]): 9
- Bedstraw plant response rating (bedstraw; [7]): 0
- Bedstraw plant response rating (bedstraw; [8]): 9
- Plant response rating, Blackgrass (blackgrass; [1]): 0
- Blackgrass plant response rating (blackgrass; [2]): 5
- Blackgrass plant response rating (blackgrass; [4]): 8
- Blackgrass plant response rating (blackgrass; [5]): 0
- Blackgrass plant response rating (blackgrass; [6]): 7
- Blackgrass plant response rating (blackgrass; [7]): 6
- Blackgrass plant response rating (blackgrass; [8]): 9
- Plant response rating, B. signalgrass (surinam grass; [1]): 0
- B. signalgrass plant response rating (surinam grass; [2]): 2
- B. signalgrass plant response rating (surinam grass; [4]): 10
- B. signalgrass plant response rating (surinam grass; Rate 62 g/ha, Preemergence, scale 0 (no effect) to 10 (complete control)): 6
- B. signalgrass plant response rating (surinam grass; [6]): 8
- B. signalgrass plant response rating (surinam grass; [7]): 8
- B. signalgrass plant response rating (surinam grass; [8]): 10
- Plant response rating, Cocklebur (cocklebur; [1]): 0
- Cocklebur plant response rating (cocklebur; [2]): 0
- Cocklebur plant response rating (cocklebur; [3]): 6
- Cocklebur plant response rating (cocklebur; [5]): 0
- Cocklebur plant response rating (cocklebur; [6]): 0
- Cocklebur plant response rating (cocklebur; [7]): 2
- Cocklebur plant response rating (cocklebur; [8]): 0
- Plant response rating, Corn (corn; [1]): 0
- Corn plant response rating (corn; [2]): 0
- Corn plant response rating (corn; [3]): 4
- Corn plant response rating (corn; [4]): 0
- Corn plant response rating (corn; [5]): 0
- Corn plant response rating (corn; [6]): 0
- Corn plant response rating (corn; [7]): 4
- Corn plant response rating (corn; [8]): 3
- Plant response rating, Crabgrass (crabgrass; [1]): 2
- Crabgrass plant response rating (crabgrass; [2]): 6
- Crabgrass plant response rating (crabgrass; [3]): 9
- Crabgrass plant response rating (crabgrass; [4]): 10
- Crabgrass plant response rating (crabgrass; [5]): 9
- Crabgrass plant response rating (crabgrass; [6]): 9
- Crabgrass plant response rating (crabgrass; [7]): 6
- Crabgrass plant response rating (crabgrass; [8]): 10
- Plant response rating, Giant foxtail (giant foxtail; [1]): 0
- Giant foxtail plant response rating (giant foxtail; [2]): 8
- Giant foxtail plant response rating (giant foxtail; [3]): 9
- Giant foxtail plant response rating (giant foxtail; [4]): 9
- Giant foxtail plant response rating (giant foxtail; [5]): 9
- Giant foxtail plant response rating (giant foxtail; [6]): 9
- Giant foxtail plant response rating (giant foxtail; [7]): 9
- Giant foxtail plant response rating (giant foxtail; [8]): 10
- Plant response rating, Morningglory (morningglory; [1]): 2
- Morningglory plant response rating (morningglory; [2]): 2
- Morningglory plant response rating (morningglory; [3]): 2
- Morningglory plant response rating (morningglory; [5]): 2
- Morningglory plant response rating (morningglory; [6]): 3
- Morningglory plant response rating (morningglory; [7]): 2
- Morningglory plant response rating (morningglory; [8]): 3
- Plant response rating, Redroot pigweed (pigweed; [1]): 5
- Redroot pigweed plant response rating (pigweed; [2]): 6
- Redroot pigweed plant response rating (pigweed; [3]): 8
- Redroot pigweed plant response rating (pigweed; [5]): 9
- Redroot pigweed plant response rating (pigweed; [6]): 10
- Redroot pigweed plant response rating (pigweed; [7]): 6
- Redroot pigweed plant response rating (pigweed; [8]): 10
- Plant response rating, Rape (rape; [1]): 0
- Rape plant response rating (rape; [2]): 0
- Rape plant response rating (rape; [3]): 0
- Rape plant response rating (rape; [5]): 2
- Rape plant response rating (rape; [6]): 5
- Rape plant response rating (rape; [7]): 0
- Rape plant response rating (rape; [8]): 9
- Plant response rating, Soybean (soybean; [1]): 2
- Soybean plant response rating (soybean; [3]): 4
- Soybean plant response rating (soybean; [5]): 0
- Soybean plant response rating (soybean; [6]): 0
- Soybean plant response rating (soybean; [7]): 4
- Soybean plant response rating (soybean; [8]): 0
- Plant response rating, Sugarbeets (sugar beet; [1]): 0
- Sugarbeets plant response rating (sugar beet; [3]): 2
- Sugarbeets plant response rating (sugar beet; [5]): 2
- Sugarbeets plant response rating (sugar beet; [6]): 6
- Sugarbeets plant response rating (sugar beet; [7]): 2
- Sugarbeets plant response rating (sugar beet; [8]): 9
- Plant response rating, Velvetleaf (velvetleaf; [1]): 0
- Velvetleaf plant response rating (velvetleaf; [3]): 5
- Velvetleaf plant response rating (velvetleaf; [5]): 5
- Velvetleaf plant response rating (velvetleaf; [6]): 5
- Velvetleaf plant response rating (velvetleaf; [7]): 3
- Velvetleaf plant response rating (velvetleaf; [8]): 10
- Plant response rating, Wheat (wheat; [1]): 0
- Wheat plant response rating (wheat; [3]): 3
- Wheat plant response rating (wheat; [5]): 0
- Wheat plant response rating (wheat; [6]): 4
- Wheat plant response rating (wheat; [7]): 3
- Wheat plant response rating (wheat; [8]): 10
- Plant response rating, Wild oats (wild oat; [1]): 0
- Wild oats plant response rating (wild oat; [3]): 2
- Wild oats plant response rating (wild oat; [5]): 3
- Wild oats plant response rating (wild oat; [6]): 7
- Wild oats plant response rating (wild oat; [7]): 2
- Wild oats plant response rating (wild oat; [8]): 10
- Plant response rating, Nutsedge (purple nutsedge; [1]): 0
- Nutsedge plant response rating (purple nutsedge; [2]): 3
- Nutsedge plant response rating (purple nutsedge; [3]): 5
- Nutsedge plant response rating (purple nutsedge; [5]): 0
- Nutsedge plant response rating (purple nutsedge; [6]): 0
- Nutsedge plant response rating (purple nutsedge; [8]): 4

SMILES: CC(C)N(C(=O)n1oc(=O)n(CCC2OCCCO2)c1=O)c1ccc(F)cc1F [Compound 502]
- Plant response rating, Bedstraw (bedstraw; [9]): 10
- Bedstraw plant response rating (bedstraw; [10]): 10
- Bedstraw plant response rating (bedstraw; [11]): 10
- Plant response rating, Blackgrass (blackgrass; [9]): 10
- Blackgrass plant response rating (blackgrass; [12]): 10
- Blackgrass plant response rating (blackgrass; [10]): 10
- Blackgrass plant response rating (blackgrass; [13]): 10
- Plant response rating, B. signalgrass (surinam grass; [9]): 6
- B. signalgrass plant response rating (surinam grass; [12]): 9
- B. signalgrass plant response rating (surinam grass; [10]): 10
- B. signalgrass plant response rating (surinam grass; [11]): 10
- Plant response rating, Cocklebur (cocklebur; [9]): 0
- Cocklebur plant response rating (cocklebur; [12]): 0
- Cocklebur plant response rating (cocklebur; [10]): 0
- Cocklebur plant response rating (cocklebur; [13]): 9
- Plant response rating, Corn (corn; [9]): 0
- Corn plant response rating (corn; [12]): 8
- Corn plant response rating (corn; [13]): 9
- Plant response rating, Crabgrass (crabgrass; [9]): 10
- Crabgrass plant response rating (crabgrass; [12]): 10
- Crabgrass plant response rating (crabgrass; [13]): 10
- Plant response rating, Giant foxtail (giant foxtail; [9]): 10
- Giant foxtail plant response rating (giant foxtail; [12]): 10
- Giant foxtail plant response rating (giant foxtail; [13]): 10
- Plant response rating, Morningglory (morningglory; [9]): 0
- Morningglory plant response rating (morningglory; [12]): 2
- Morningglory plant response rating (morningglory; [13]): 4
- Plant response rating, Redroot pigweed (pigweed; [9]): 9
- Redroot pigweed plant response rating (pigweed; [12]): 9
- Redroot pigweed plant response rating (pigweed; [13]): 10
- Plant response rating, Rape (rape; [9]): 2
- Rape plant response rating (rape; [12]): 3
- Rape plant response rating (rape; [13]): 9
- Plant response rating, Soybean (soybean; [9]): 0
- Soybean plant response rating (soybean; [12]): 4
- Soybean plant response rating (soybean; [13]): 5
- Plant response rating, Sugarbeets (sugar beet; [9]): 0
- Sugarbeets plant response rating (sugar beet; [12]): 2
- Sugarbeets plant response rating (sugar beet; [13]): 7
- Plant response rating, Velvetleaf (velvetleaf; [9]): 0
- Velvetleaf plant response rating (velvetleaf; [12]): 5
- Velvetleaf plant response rating (velvetleaf; [13]): 8
- Plant response rating, Wheat (wheat; [9]): 0
- Wheat plant response rating (wheat; [12]): 3
- Wheat plant response rating (wheat; [13]): 7
- Plant response rating, Wild oats (wild oat; [9]): 9
- Wild oats plant response rating (wild oat; [12]): 9
- Wild oats plant response rating (wild oat; [13]): 10
- Plant response rating, Nutsedge (purple nutsedge; [9]): 0
